From PMC9716045 (Journal of Pesticide Science, 2022)

Assays:
DHODH of mice = conditions: read-out: IC50 value for DHODH; cited from earlier work
DHODH of rats = conditions: read-out: IC50 value for DHODH; cited from earlier work
DHODH of humans = conditions: read-out: IC50 value for DHODH; cited from earlier work
DHODH of A. fumigatus = conditions: read-out: IC50 value for DHODH; cited from earlier work
P. oryzae 40901 = type: cell-based, Pyricularia oryzae
P. oryzae = type: cell-based, Pyricularia oryzae
Fusarium graminearum = conditions: cited from earlier work
Sclerotinia sclerotiorum = conditions: cited from earlier work

For `C/C(O)=C(\C#N)C(=O)Nc1ccc(C(F)(F)F)cc1` [A77-1726, teriflunomide], the IC50 (DHODH of mice) is given as 82 ± 21 nM, the IC50 (DHODH of rats) is given as 18 ± 3 nM and the IC50 (DHODH of humans) is given as 773 ± 78 nM.

For `Cc1cc(-c2ccccc2)c(C(=O)C(=O)Nc2ccc(N3CCN(c4ncc(F)cn4)CC3)cc2)n1C` [F901318, olorofim], the IC50 (DHODH of A. fumigatus) is listed as 44 ± 10 nM.

For `CC1(C)N=C(c2cnc3ccccc3c2)c2ccccc2C1(F)F` [quinofumelin, 3-(4,4-difluoro-3,3-dimethyl-3,4-dihydroisoquinolin-1-yl)quinoline], the “mycelial growth on minimal medium agar plates” value (P. oryzae 40901) was “could not be recognized”, the “mycelial growth with exogenous orotate at high quinofumelin concentration” value (P. oryzae 40901) was “slow mycelial growth” and the “recovery of mycelial growth by exogenous dihydroorotate” value (P. oryzae 40901) was “did not recover”. The “recovery of mycelial growth by exogenous orotate” value (P. oryzae 40901) was “recovered”, the “recovery of mycelial growth by exogenous uracil” value (P. oryzae 40901) was “restored” and the “antifungal activity on PDA medium” value (P. oryzae) was “moderate antifungal activity”. The “antifungal activity on PDA medium” value (Fusarium graminearum) was “strong antifungal activity” and the “antifungal activity on PDA medium” value (Sclerotinia sclerotiorum) was “strong antifungal activity”.
